According to paper PMC7719179, “Small molecule inhibition of Dynamin-dependent endocytosis targets multiple niche signals and impairs leukemia stem cells” (Nature Communications, 2020):
Values joined by “and” are separate entries in the source; they are usually repeats but may differ in a detail not shown here. Equal values may be shown once.

Assays:
[1] = system: Hes1 in leukemic DN3a cells from primary Lmo2^Tg T-ALL; assay: Notch1 (DL1)-induced Hes1 in leukemic DN3a cells from primary Lmo2^Tg T-ALL; type: cell-based, mouse
Protocol: (§1) Phosphoflow analysis was performed as previously described. Briefly, 2 × 10^6 cells stained for surface markers were subsequently resuspended into PBS 1× + 4% v/v paraformaldehyde and incubated for 10 min at 4 °C for fixation. Fixed cells were washed twice using PBS 1×, then resuspended in pre-chilled at −20 °C Perm Buffer III (BD Pharmingen) and incubated 30 min at 4 °C for permeabilization. Cells were washed twice using PBS 1× and incubated overnight at 4 °C in PBS 1× + 2% v/v fetal calf serum (FCS) with Cell Signalling purified antibodies (Genesearch Pty Ltd, Arundel QLD, Australia) against pSTAT5 (Tyr694; #9359), phospho-p38 MAPK (Thr180/Tyr182; #4511), phospho-p44/42 (Erk1/2; #9102), phospho-S6 (Ser235/236; #4856) and phospho-Akt (Ser473; #9271) or isotype control. For intracellular HES1 detection, cells stained for surface markers were subsequently fixed and permeabilized using the BD Cytofix/Cytoperm^TM Kit and incubated overnight at 4 °C in PBS 1× + 2% v/v FCS with a purified antibody against HES1 (D6PU; #11988, Cell Signalling) or isotype control. After staining with primary antibodies for phosphoflow or intracellular detection, cells were incubated in permeabilization buffer with donkey Alexa Fluor 488-conjugated anti-rabbit secondary antibody (A-21206, lot #1910751, Molecular Probes, Invitrogen) or goat Alexa Fluor 546-conjugated anti-rabbit secondary antibody (A-11035, lot #1904467, Molecular Probes, Invitrogen) for 1 h on ice, and washed twice in PBS 1×. Fluorescence-activated cell sorting (FACS) analysis was performed using LSRII and LSR Fortessa cytometers, following the gating strategies described in Supplementary Fig. 11. Cell sorting was performed with a FACSAria or BD Influx.
For in vitro NOTCH1 signalling activation assays, cells were seeded on OP9 and OP9-DL1 stromal cell lines as described in the co-culture assays section and incubated overnight with either Dynole 34-2 or Ruxolitinib or DAPT resuspended in DMSO. Harvested cells were washed twice using cold PBS 1× and incubated with 25 ng/mL Rat IgG (Sigma-Aldrich Pty Ltd, Castle Hill NSW, Australia) with a PE-conjugated antibody for detection of NOTCH1 for 1 h on ice, as described in the FACS analysis section. PE-conjugated isotype was used as negative control. Cells were washed twice, fixed and analysed for intracellular HES1 detection by flow cytometry as described in the FACS analysis section. The analysis was performed in triplicate and the MFI observed in thymocytes co-cultured on OP9 cells was reported as 100%.

[2] = system: pre-LSC activity of Lmo2^Tg DN3a thymocytes; assay: Transplantation of in vitro treated Lmo2^Tg DN3a thymocytes (fold expansion, engraftment); type: in vivo, mouse; details: thymus of recipients 6 weeks post-transplantation of Lmo2^Tg DN3a thymocytes treated in vitro (Dynole 34-2 0.2 μM, Ruxolitinib 0.2 μM, DAPT 0.1 μM); individual recipients
Protocol: Single-cell suspension of murine thymus cells were intravenously injected into sublethally irradiated (650 Rads) isogenic Ly5.1 (Cd45.1) mice. Fold expansion was calculated by dividing the absolute output number of donor-derived DN3a cells harvested at the experimental endpoint by the respective number of DN3a thymocytes injected in each recipient. Limiting dilution transplantations were performed as described, by injecting various doses (10^1 to 10^6) of thymocytes per recipient, and mice were scored positive when T-cell lineage reconstitution assessed 6 weeks after transplantation was >1%. Leukemia-propagating cell frequency was calculated by applying Poisson statistics using the ELDA: Extreme Limiting Dilution Analysis software (Walter and Eliza Hall Institute Bioinformatics, Parkville VIC, Australia)[96]. Limiting dilution transplantations were performed independently from any other transplantation assays, using thymocytes from three different Lmo2^Tg mice for each cohort. Kaplan–Meier survival and statistical analysis were performed using GraphPad Prism. 6.0 software (GraphPad Software Inc, San Diego CA, USA).

[3] = system: pStat5, Hes1, p-Erk, p-p38, p-S6, p-Akt in Lmo2^Tg DN3a cells; assay: Growth factor-mediated signalling effectors in co-cultured Lmo2^Tg DN3a cells (flow cytometry); type: cell-based, mouse
Protocol: as §1

Lmo2^Tg DN3a thymocytes = assay: Absolute numbers of co-cultured Lmo2^Tg DN3a thymocytes after in vitro treatment; type: cell-based, mouse; details: 72 h, Dynole 34-2 0.2 μM, Ruxolitinib 0.2 μM, DAPT 0.1 μM
Protocol: Pre-leukemic and leukemic thymocytes were purified by flow cytometry and co-cultured on GFP-positive OP9 and OP9-DL1 stromal cell lines, as described previously. Thymocytes were co-cultured in reconstituted alpha-MEM medium (#12318, Gibco, Grand Island NY, USA) supplemented with 20% FCS (#12318), HEPES 10 mM (#15630-080), sodium pyruvate 1 mM (#11360-070), β-mercaptoethanol 55 μM (#21985-023), Glutamax 2 mM (#15750-060), 1% Penicillin/Streptomycin (#15140-122), 5 ng/mL rmFLT-3 ligand (#250-31 L, Pepro Tech), 5 ng/mL rmIL-7 (#217-17, Pepro Tech) and 25 ng/mL rmSCF (#250-03, Pepro Tech). […]

[4] = leukemic DN3a cells of TALL249, Notch1 (DL1) stimulation
[5] = leukemic DN3a cells of TALL257, Notch1 (DL1) stimulation
[6] = leukemic DN3a cells of TALL273, Notch1 (DL1) stimulation
[7] = leukemic DN3a cells of TALL582, Notch1 (DL1) stimulation
[8] = leukemic DN3a cells of TALL588, Notch1 (DL1) stimulation
[9] = leukemic DN3a cells of TALL742, Notch1 (DL1) stimulation
[10] = Lmo2^Tg DN3a cells co-cultured on OP9-DL1 with cytokines, individual animals
[11] = Supplementary Figure 2c, unstimulated and vehicle controls in the same table

Row | Structure (SMILES) | Hes1 (MFI) [1, 4] [MFI] | Hes1, FOLD over unstimulated [1, 4] [fold] | Hes1 (MFI) [1, 5] [MFI] | Hes1, FOLD over unstimulated [1, 5] [fold] | Hes1 (MFI) [1, 6] [MFI] | Hes1, FOLD over unstimulated [1, 6] [fold] | Hes1 (MFI) [1, 7] [MFI] | Hes1, FOLD over unstimulated [1, 7] [fold] | Hes1 (MFI) [1, 8] [MFI] | Hes1, FOLD over unstimulated [1, 8] [fold] | Hes1 (MFI) [1, 9] [MFI] | Hes1, FOLD over unstimulated [1, 9] [fold] | Fold expansion DN3a cells [2] | Hes1 (MFI) [3, 11] | Absolute numbers DN3a cells (Lmo2^Tg DN3a thymocytes) | other results
1 | CCCCCCCCNC(=O)C(C#N)=Cc1cn(CCCN(C)C)c2ccccc12 [Dynole 34-2, 2-Cyano-N-octyl-3-(1-(3-dimethylaminopropyl)-1H-indol-3-yl)-acrylamide] | 7095 | 0.94 | 5988 | 1.05 | 7679 | 0.92 | 5082 | 0.94 | 7974 | 1.46 | 7594 | 0.96 | 0.05 fold and 0.01 fold and 3.00 fold and 6.41 fold and 5.91 fold and 0.19 fold and 17.69 fold | 1218 MFI and 1199 MFI and 1165 MFI | 28200 and 18800 and 27200 and 23300 and 23200 | Hes1 (MFI) [3, 10]: 5911 MFI and 6176 MFI and 5994 MFI and 6141 MFI; p-Akt (MFI) [3, 10]: 1455 MFI and 2044 MFI and 1472 MFI and 1916 MFI; p-Erk (MFI) [3, 10]: 2822 MFI and 3661 MFI and 3448 MFI and 2830 MFI; p-S6 (MFI) [3, 10]: 4904 MFI and 4987 MFI and 5062 MFI and 5235 MFI; p-p38 (MFI) [3, 10]: 4351 MFI and 3539 MFI and 4397 MFI and 3757 MFI; pStat5 (MFI) [3, 10]: 2745 MFI and 2767 MFI and 2938 MFI and 3210 MFI
2 | C[C@H](NC(=O)Cc1cc(F)cc(F)c1)C(=O)N[C@H](C(=O)OC(C)(C)C)c1ccccc1 [DAPT, N-[N-(3,5-Difluorophenacetyl)-L-alanyl]-S-phenylglycine t-butyl ester] | 6973 | 0.92 | 4801 | 0.84 | 7737 | 0.92 | 5294 | 0.98 | 6134 | 1.12 | 7313 | 0.93 | 0.05 fold and 0.01 fold and 0.07 fold and 2.41 fold and 0.20 fold and 11.64 fold | 1314 MFI and 1222 MFI and 1307 MFI | 26800 and 17800 and 27000 and 25800 and 24600 | –
3 | N#CC[C@H](C1CCCC1)n1cc(-c2ncnc3[nH]ccc23)cn1 [Ruxolitinib] | 8215 | 1.09 | 8036 | 1.41 | 8741 | 1.04 | 6452 | 1.20 | 8104 | 1.48 | 10321 | 1.31 | 0.06 fold and 0.01 fold and 5.29 fold and 8.54 fold and 22.76 fold and 8.51 fold | 1340 MFI and 1445 MFI and 1491 MFI | – | –
